# How the values were obtained:
# [1] = target: T1, Bromodomain-containing protein 4 (Homo sapiens, UniProt O60885); assay: Inhibition of BRD4 BD1 (unknown origin) preincubated for 15 mins followed by peptide addition and measured after 60 mins by TR-FRET assay
# [2] = target: T2, Bromodomain-containing protein 2 (Homo sapiens, UniProt P25440); assay: Inhibition of BRD2 BD2 (unknown origin) preincubated for 15 mins followed by peptide addition and measured after 60 mins by TR-FRET assay
# [3] = target: T1, Bromodomain-containing protein 4; assay: Inhibition of BRD4 BD2 (unknown origin) preincubated for 15 mins followed by peptide addition and measured after 60 mins by TR-FRET assay
# [4] = target: T2, Bromodomain-containing protein 2; assay: Inhibition of BRD2 BD1 (unknown origin) preincubated for 15 mins followed by peptide addition and measured after 60 mins by TR-FRET assay
# HT-29 = assay: Antiproliferative activity against human HT29 cells incubated for 72 hrs by MTT assay; conditions: HT-29, 72 h
# WI-38 = assay: Antiproliferative activity against human WI-38 cells incubated for 72 hrs by MTT assay; conditions: WI-38, 72 h
# HL-60 = assay: Antiproliferative activity against human HL60 cells incubated for 72 hrs by CCK8 assay; conditions: HL-60, 72 h
# [5] = Tmax in Wistar rat at 15 mg/kg, po measured up to 24 hrs by LC-MS/MS analysis; assay type: ADME, organism-based; conditions: in vivo
# [6] = Apparent clearance during terminal phase in Wistar rat at 15 mg/kg, po measured up to 24 hrs by LC-MS/MS analysis; assay type: ADME, organism-based; conditions: in vivo, read-out: CLz/F (converted)
# [7] = Half life in Wistar rat at 15 mg/kg, po measured up to 24 hrs by LC-MS/MS analysis; assay type: ADME, organism-based; conditions: in vivo
# [8] = Oral bioavailability in Wistar rat at 15 mg/kg measured up to 24 hrs by LC-MS/MS analysis; assay type: ADME, organism-based; conditions: in vivo
# [9] = Cmax in Wistar rat at 15 mg/kg, po measured up to 24 hrs by LC-MS/MS analysis; assay type: ADME, organism-based; set-up: route oral, dose 15 mg/kg, time <=24; conditions: in vivo
# [10] = AUC(0 to t) in Wistar rat at 5 mg/kg, iv measured up to 24 hrs by LC-MS/MS analysis; assay type: ADME, organism-based; set-up: route intravenous, dose 5 mg/kg, time <=24; conditions: in vivo
# [11] = AUC(0 to infinity) in Wistar rat at 15 mg/kg, po measured up to 24 hrs by LC-MS/MS analysis; assay type: ADME, organism-based; set-up: route oral, dose 15 mg/kg, time <=24; conditions: in vivo
# [12] = AUC(0 to infinity) in Wistar rat at 5 mg/kg, iv measured up to 24 hrs by LC-MS/MS analysis; assay type: ADME, organism-based; set-up: route intravenous, dose 5 mg/kg, time <=24; conditions: in vivo
# [13] = AUC(0 to t) in Wistar rat at 15 mg/kg, po measured up to 24 hrs by LC-MS/MS analysis; assay type: ADME, organism-based; set-up: route oral, dose 15 mg/kg, time <=24; conditions: in vivo
# [14] = Apparent clearance during terminal phase in Wistar rat at 5 mg/kg, iv measured up to 24 hrs by LC-MS/MS analysis; assay type: ADME, organism-based; conditions: in vivo
# [15] = Half life in Wistar rat at 5 mg/kg, iv measured up to 24 hrs by LC-MS/MS analysis; assay type: ADME, organism-based; conditions: in vivo
# T2 sequence (P25440 whole entry): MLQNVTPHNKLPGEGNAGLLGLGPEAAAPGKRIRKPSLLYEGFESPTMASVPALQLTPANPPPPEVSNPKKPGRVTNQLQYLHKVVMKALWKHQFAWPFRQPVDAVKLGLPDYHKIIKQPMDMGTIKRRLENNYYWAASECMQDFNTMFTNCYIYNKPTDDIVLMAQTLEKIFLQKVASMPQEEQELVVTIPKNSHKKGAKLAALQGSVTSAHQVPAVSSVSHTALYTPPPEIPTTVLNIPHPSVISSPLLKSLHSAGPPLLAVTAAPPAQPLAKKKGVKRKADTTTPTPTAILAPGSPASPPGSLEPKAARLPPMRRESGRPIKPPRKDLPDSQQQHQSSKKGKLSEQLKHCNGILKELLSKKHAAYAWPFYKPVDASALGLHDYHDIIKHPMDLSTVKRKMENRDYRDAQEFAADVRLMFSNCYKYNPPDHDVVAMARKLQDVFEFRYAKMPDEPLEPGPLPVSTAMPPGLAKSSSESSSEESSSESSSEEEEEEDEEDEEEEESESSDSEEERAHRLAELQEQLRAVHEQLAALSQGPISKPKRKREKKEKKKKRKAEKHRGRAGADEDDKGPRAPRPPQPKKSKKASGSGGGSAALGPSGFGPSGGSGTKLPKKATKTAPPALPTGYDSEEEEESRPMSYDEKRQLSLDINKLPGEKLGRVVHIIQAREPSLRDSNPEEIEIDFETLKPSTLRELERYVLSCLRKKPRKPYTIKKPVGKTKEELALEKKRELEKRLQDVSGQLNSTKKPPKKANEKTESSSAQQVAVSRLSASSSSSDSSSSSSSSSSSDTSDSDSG
smiles,measurement,setting,value
C/C=C1\C(=O)Nc2ccc(NS(=O)(=O)c3ccccc3OC)cc21,IC50,[1],36 nM
COc1ccc(C)cc1S(=O)(=O)Nc1ccc2c(c1)C(=C(C)C)C(=O)N2,IC50,[1],30 nM
COc1ccc(Br)cc1S(=O)(=O)Nc1ccc2c(c1)C(=C(C)C)C(=O)N2,IC50,[2],22 nM
same,IC50,[3],21 nM
same,IC50,[1],23 nM
same,IC50,[4],39 nM
COc1ccc(F)cc1S(=O)(=O)Nc1ccc2c(c1)C(=C(C)C)C(=O)N2,IC50,[1],34 nM
CC/C=C1\C(=O)Nc2ccc(NS(=O)(=O)c3ccccc3OC)cc21,IC50,[1],114 nM
COc1ccccc1S(=O)(=O)Nc1ccc2c(c1)C(=C1CCC1)C(=O)N2,IC50,[1],26 nM
Cc1sc2c(c1C)C(c1ccc(Cl)cc1)=N[C@@H](CC(=O)OC(C)(C)C)c1nnc(C)n1-2,IC50,HT-29,480 nM
same,IC50,WI-38,4970 nM
same,IC50,HL-60,160 nM
CC(C)=C1C(=O)Nc2ccc(NS(=O)(=O)C3CCCCC3)cc21,IC50,[1],22 nM
CC(C)=C1C(=O)Nc2ccc(NS(=O)(=O)c3ccc4ccccc4c3)cc21,IC50,[1],203 nM
CC(C)=C1C(=O)Nc2ccc(NS(=O)(=O)c3cc(C)ccc3F)cc21,IC50,[1],20 nM
COc1ccccc1S(=O)(=O)Nc1ccc2c(c1)CN(C)C(=O)N2,IC50,HT-29,14700 nM
same,IC50,WI-38,19800 nM
same,IC50,HL-60,3990 nM
COc1ccc(S(=O)(=O)Nc2ccc3c(c2)C(=C(C)C)C(=O)N3)cc1,IC50,[1],94 nM
CC(C)=C1C(=O)Nc2ccc(NS(=O)(=O)c3cccc4c(N(C)C)cccc34)cc21,IC50,[1],208 nM
CC(C)=C1C(=O)Nc2ccc(NS(=O)(=O)c3ccc4c(c3)CCO4)cc21,IC50,[1],92 nM
CC(C)=C1C(=O)Nc2ccc(NS(=O)(=O)c3cccc4ccccc34)cc21,IC50,[1],62 nM
CC(C)=C1C(=O)Nc2ccc(NS(=O)(=O)c3cc(F)ccc3F)cc21,IC50,[1],56 nM
CC(C)=C1C(=O)Nc2ccc(NS(=O)(=O)c3ccccc3Br)cc21,IC50,[2],25 nM
same,IC50,[3],43 nM
same,IC50,[1],25 nM
same,IC50,[4],40 nM
COc1ccccc1S(=O)(=O)Nc1ccc2c(c1)C(=C(C)C)C(=O)N2,Tmax,[5],1 h
same,CL/F,[6],17.2 mL/min/kg
same,IC50,[2],18 nM
same,half-life,[7],3.59 h
same,bioavailability,[8],66%
same,Cmax,[9],2180 ng/mL
same,AUC(0-t) at 24 h,[10],7300 ng·h/mL
same,AUC(0-inf),[11],14600 ng·h/mL
same,AUC(0-inf),[12],7340 ng·h/mL
same,AUC(0-t) at 24 h,[13],14400 ng·h/mL
same,CLz/F,[14],11.3 mL/min/kg
same,half-life,[15],1.56 h
same,IC50,[4],24 nM
